Measurements taken from ChEMBL document CHEMBL4507257, “Data for DCP probe ABT-100” (2021).

Tests used:
[1] = target: Serine/threonine-protein kinase BRSK1 (Homo sapiens) (UniProt Q8TDC3); details: Compound concentration 1000.0 nM
[2] = target: Cyclin-dependent kinase 11B (Homo sapiens) (UniProt P21127); details: Compound concentration 1000.0 nM
[3] = target: Cyclin-dependent kinase 5 (Homo sapiens) (UniProt Q00535); details: Compound concentration 1000.0 nM
[4] = target: Dual specificity tyrosine-phosphorylation-regulated kinase 1A (Homo sapiens) (UniProt Q13627); details: Compound concentration 1000.0 nM
[5] = target: Fibroblast growth factor receptor 1 (Homo sapiens) (UniProt P11362); details: Compound concentration 1000.0 nM
[6] = target: Serine/threonine-protein kinase PAK 1 (Homo sapiens) (UniProt Q13153); details: Compound concentration 1000.0 nM
[7] = target: Phosphatidylinositol 4,5-bisphosphate 3-kinase catalytic subunit beta isoform (Homo sapiens) (UniProt P42338); details: Compound concentration 1000.0 nM
Phosphatidylinositol 4,5-bisphosphate 3-kinase catalytic subunit beta isoform (Homo sapiens), sequence (P42338 whole entry, looked up, canonical isoform): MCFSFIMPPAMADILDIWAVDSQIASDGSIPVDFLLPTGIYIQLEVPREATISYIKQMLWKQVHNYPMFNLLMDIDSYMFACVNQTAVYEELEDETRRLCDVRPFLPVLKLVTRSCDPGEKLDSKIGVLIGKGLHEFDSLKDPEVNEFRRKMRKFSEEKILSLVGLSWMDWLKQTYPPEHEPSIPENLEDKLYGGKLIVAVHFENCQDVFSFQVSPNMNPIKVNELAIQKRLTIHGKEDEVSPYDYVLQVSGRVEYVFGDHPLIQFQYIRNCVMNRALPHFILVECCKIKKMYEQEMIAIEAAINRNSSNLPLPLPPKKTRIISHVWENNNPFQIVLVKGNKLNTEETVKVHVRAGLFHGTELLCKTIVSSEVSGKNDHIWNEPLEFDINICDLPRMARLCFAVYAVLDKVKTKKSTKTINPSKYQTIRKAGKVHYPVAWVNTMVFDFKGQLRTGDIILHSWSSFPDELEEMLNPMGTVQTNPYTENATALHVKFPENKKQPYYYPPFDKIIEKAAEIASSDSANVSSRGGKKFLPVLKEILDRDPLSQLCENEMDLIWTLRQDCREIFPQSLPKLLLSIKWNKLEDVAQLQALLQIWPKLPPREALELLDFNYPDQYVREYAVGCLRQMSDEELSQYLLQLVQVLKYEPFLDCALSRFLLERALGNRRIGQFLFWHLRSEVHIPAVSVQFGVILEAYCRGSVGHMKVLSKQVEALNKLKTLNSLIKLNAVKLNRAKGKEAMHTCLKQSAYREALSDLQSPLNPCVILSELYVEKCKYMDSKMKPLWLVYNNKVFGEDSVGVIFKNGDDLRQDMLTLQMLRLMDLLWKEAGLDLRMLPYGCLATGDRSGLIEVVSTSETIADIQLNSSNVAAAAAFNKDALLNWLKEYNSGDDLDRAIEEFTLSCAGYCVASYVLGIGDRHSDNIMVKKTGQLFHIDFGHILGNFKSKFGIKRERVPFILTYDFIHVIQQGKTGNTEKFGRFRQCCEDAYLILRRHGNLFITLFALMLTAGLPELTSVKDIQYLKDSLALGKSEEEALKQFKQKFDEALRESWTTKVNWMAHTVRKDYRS

[8] = target: Rho-associated protein kinase 2 (Homo sapiens) (UniProt O75116); details: Compound concentration 1000.0 nM
[9] = target: Serine/threonine-protein kinase Sgk1 (Homo sapiens) (UniProt O00141); details: Compound concentration 1000.0 nM
Serine/threonine-protein kinase Sgk1 (Homo sapiens), sequence (O00141 whole entry): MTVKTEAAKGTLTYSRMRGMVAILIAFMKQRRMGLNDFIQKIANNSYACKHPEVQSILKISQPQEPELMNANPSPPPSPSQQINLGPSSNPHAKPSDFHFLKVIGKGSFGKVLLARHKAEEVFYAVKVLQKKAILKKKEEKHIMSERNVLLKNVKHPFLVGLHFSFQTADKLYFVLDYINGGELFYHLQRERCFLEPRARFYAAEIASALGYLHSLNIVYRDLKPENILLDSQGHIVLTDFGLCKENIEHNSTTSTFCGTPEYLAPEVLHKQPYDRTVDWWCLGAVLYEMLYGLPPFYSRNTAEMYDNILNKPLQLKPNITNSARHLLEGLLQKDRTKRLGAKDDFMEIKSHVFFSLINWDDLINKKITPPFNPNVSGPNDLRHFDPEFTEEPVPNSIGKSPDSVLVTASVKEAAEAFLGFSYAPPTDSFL

[10] = target: Serine/threonine-protein kinase 25 (Homo sapiens) (UniProt O00506); details: Compound concentration 1000.0 nM
Serine/threonine-protein kinase 25 (Homo sapiens), sequence (O00506 whole entry, looked up): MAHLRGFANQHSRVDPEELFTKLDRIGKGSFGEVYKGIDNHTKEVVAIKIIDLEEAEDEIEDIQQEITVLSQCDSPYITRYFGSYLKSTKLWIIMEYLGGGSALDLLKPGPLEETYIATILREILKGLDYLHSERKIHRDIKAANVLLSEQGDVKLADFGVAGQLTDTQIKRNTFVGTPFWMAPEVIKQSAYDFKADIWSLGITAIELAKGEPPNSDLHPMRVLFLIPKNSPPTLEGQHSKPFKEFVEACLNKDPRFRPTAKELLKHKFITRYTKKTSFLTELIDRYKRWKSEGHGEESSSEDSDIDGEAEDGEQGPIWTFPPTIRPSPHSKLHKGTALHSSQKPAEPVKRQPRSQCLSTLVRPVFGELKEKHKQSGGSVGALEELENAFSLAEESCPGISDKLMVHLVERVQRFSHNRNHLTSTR

[11] = target: Kappa-type opioid receptor (Homo sapiens) (UniProt P41145); details: Compound concentration 10.0 uM
Kappa-type opioid receptor (Homo sapiens), sequence (P41145 whole entry): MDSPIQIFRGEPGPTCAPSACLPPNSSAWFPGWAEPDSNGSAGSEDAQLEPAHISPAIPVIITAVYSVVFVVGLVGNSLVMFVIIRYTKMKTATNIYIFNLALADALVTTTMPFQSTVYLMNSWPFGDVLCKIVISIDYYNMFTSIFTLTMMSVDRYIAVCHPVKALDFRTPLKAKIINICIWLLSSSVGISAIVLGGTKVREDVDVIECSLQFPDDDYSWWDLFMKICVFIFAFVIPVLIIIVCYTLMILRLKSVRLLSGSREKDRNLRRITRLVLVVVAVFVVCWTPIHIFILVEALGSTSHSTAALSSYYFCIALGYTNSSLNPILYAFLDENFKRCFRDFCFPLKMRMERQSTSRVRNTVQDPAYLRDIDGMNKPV

[12] = target: Muscarinic acetylcholine receptor M3 (Homo sapiens) (UniProt P20309); details: Compound concentration 10.0 uM
Muscarinic acetylcholine receptor M3 (Homo sapiens), sequence (P20309 whole entry, looked up): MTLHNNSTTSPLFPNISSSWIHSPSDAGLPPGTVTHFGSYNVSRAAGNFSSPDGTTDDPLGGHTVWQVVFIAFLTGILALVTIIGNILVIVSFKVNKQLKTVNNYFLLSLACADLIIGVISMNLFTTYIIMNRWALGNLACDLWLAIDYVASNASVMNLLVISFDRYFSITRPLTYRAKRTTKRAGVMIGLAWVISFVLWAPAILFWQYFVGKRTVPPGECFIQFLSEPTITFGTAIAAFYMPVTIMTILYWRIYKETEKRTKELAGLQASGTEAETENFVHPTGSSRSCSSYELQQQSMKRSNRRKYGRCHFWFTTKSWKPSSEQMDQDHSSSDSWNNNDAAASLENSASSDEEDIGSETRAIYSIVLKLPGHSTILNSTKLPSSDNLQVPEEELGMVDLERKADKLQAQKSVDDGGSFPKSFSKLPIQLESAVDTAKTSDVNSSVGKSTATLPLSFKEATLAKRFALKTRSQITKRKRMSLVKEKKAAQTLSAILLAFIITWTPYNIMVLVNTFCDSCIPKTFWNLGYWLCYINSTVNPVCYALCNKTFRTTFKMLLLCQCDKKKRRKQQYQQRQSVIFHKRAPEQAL

[13] = target: Serine/threonine-protein kinase BRSK2 (Homo sapiens, UniProt Q8IWQ3); experiment: Inhibition of BRSK2 at compound concentration of 10.0 uM using the ScanMax (DiscoverX)
[14] = target: Serine/threonine-protein kinase Nek7 (Homo sapiens, UniProt Q8TDX7); experiment: Inhibition of NEK7 at compound concentration of 10.0 uM using the ScanMax (DiscoverX)
[15] = target: Type-1 angiotensin II receptor (Homo sapiens) (UniProt P30556); experiment: AT1 (h) Ligand binding assay; details: Compound concentration 10.0 uM
[16] = target: Gastrin/cholecystokinin type B receptor (Homo sapiens) (UniProt P32239); experiment: CCKB (h) Ligand binding assay; details: Compound concentration 10.0 uM
[17] = target: D(2) dopamine receptor (Homo sapiens) (UniProt P14416); experiment: D2 (h) Ligand binding assay; details: Compound concentration 10.0 uM
[18] = target: T1, D(4) dopamine receptor (Homo sapiens) (UniProt P21917); experiment: D4.4 (h) Ligand binding assay; details: Compound concentration 10.0 uM
T1 sequence (whole entry): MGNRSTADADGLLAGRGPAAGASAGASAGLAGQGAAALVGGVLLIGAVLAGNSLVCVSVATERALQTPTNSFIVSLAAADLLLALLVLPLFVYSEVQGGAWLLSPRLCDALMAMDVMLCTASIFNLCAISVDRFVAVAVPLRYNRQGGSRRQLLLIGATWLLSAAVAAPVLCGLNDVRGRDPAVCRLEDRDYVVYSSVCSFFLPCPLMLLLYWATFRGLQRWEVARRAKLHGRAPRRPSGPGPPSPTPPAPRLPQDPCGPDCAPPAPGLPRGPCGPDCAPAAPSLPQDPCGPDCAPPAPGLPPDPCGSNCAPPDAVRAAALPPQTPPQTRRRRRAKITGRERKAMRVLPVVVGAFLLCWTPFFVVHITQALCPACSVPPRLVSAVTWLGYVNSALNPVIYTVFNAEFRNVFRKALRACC

[19] = target: Sodium-dependent dopamine transporter (Homo sapiens) (UniProt Q01959); experiment: DA uptake (h) Ligand binding assay
Sodium-dependent dopamine transporter (Homo sapiens), sequence (Q01959 whole entry): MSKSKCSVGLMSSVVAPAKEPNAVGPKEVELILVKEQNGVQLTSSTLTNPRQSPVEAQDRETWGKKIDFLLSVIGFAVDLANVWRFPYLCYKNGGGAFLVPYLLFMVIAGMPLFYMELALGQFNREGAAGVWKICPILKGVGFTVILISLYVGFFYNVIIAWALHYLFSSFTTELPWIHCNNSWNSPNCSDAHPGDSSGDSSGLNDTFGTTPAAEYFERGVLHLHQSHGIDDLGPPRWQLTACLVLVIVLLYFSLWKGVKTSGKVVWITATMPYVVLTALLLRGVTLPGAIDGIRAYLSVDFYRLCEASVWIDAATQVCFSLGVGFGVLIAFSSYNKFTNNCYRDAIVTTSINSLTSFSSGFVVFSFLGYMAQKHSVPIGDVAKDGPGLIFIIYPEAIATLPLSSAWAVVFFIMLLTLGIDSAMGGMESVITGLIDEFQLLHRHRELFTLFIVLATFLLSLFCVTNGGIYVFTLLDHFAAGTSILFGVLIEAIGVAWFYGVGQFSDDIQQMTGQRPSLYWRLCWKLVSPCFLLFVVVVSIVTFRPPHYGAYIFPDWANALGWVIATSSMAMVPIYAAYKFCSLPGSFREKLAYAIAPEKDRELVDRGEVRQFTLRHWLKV

[20] = target: Platelet-derived growth factor receptor (Homo sapiens) (UniProt P09619+P16234); experiment: PDGF Ligand binding assay; format: protein-complex assay; details: Compound concentration 10.0 uM
[21] = target: C-X-C chemokine receptor type 1 (Homo sapiens) (UniProt P25024); experiment: IL-8A (h) (CXCR1) Ligand binding assay; details: Compound concentration 10.0 uM
[22] = target: C-C chemokine receptor type 1 (Homo sapiens) (UniProt P32246); experiment: CCR1 (h) Ligand binding assay; details: Compound concentration 10.0 uM
[23] = target: Substance-K receptor (Homo sapiens) (UniProt P21452); experiment: NK2 (h) Ligand binding assay
Substance-K receptor (Homo sapiens), sequence (P21452 whole entry): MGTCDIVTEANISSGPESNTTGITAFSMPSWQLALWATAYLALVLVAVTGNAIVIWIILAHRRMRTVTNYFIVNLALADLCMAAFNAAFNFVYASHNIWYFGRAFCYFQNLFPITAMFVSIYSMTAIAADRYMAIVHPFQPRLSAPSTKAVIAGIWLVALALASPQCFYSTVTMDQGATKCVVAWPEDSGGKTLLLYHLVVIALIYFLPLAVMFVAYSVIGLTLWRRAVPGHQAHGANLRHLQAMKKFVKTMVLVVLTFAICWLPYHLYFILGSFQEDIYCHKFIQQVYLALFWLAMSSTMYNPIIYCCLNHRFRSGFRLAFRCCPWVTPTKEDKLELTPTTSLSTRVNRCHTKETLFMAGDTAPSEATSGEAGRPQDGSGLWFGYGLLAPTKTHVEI

[24] = target: Neurotensin receptor type 1 (Homo sapiens) (UniProt P30989); experiment: NT1 (h) Ligand binding assay; details: Compound concentration 10.0 uM
[25] = target: Delta-type opioid receptor (Homo sapiens) (UniProt P41143); experiment: Delta (h) Ligand binding assay; details: Compound concentration 10.0 uM
[26] = target: P2X receptor (Rattus norvegicus) (UniProt P51579+P49653+P51578+Q64663+P47824+P51577+P49654); experiment: P2X Ligand binding assay; format: protein assay; details: Compound concentration 10.0 uM
[27] = target: T2, 5-hydroxytryptamine receptor 1A (Homo sapiens) (UniProt P08908); experiment: 5-HT1A (h) Ligand binding assay; details: Compound concentration 10.0 uM
T2 sequence (whole entry): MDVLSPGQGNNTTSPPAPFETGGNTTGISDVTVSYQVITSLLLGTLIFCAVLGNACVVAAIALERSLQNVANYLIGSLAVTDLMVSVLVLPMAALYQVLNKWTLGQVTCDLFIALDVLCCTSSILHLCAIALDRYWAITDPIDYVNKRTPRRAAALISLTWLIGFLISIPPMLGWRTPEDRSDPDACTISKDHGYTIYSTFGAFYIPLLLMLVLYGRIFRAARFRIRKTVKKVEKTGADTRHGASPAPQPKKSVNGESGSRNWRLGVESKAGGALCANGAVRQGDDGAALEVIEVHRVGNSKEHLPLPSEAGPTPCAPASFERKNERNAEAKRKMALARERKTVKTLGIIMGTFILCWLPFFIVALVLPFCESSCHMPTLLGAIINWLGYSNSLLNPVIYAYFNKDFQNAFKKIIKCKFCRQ

[28] = target: GABA-A receptor; anion channel (Rattus norvegicus) (UniProt O09028+P15431+P18506+P18508+P19969+P20236+P23574+P23576+P28471+P28473+P30191+P62813+P63079+P63138+Q91ZM7+Q9ES14); details: Compound concentration 10.0 uM
[29] = target: Muscarinic acetylcholine receptor M2 (Homo sapiens) (UniProt P08172); details: Compound concentration 10.0 uM
[30] = test system: Glutamate receptor ionotropic NMDA, PCP site (Homo sapiens); experiment: PCP Ligand binding assay

Cyclin-dependent kinase 11B (Homo sapiens), sequence (P21127 whole entry): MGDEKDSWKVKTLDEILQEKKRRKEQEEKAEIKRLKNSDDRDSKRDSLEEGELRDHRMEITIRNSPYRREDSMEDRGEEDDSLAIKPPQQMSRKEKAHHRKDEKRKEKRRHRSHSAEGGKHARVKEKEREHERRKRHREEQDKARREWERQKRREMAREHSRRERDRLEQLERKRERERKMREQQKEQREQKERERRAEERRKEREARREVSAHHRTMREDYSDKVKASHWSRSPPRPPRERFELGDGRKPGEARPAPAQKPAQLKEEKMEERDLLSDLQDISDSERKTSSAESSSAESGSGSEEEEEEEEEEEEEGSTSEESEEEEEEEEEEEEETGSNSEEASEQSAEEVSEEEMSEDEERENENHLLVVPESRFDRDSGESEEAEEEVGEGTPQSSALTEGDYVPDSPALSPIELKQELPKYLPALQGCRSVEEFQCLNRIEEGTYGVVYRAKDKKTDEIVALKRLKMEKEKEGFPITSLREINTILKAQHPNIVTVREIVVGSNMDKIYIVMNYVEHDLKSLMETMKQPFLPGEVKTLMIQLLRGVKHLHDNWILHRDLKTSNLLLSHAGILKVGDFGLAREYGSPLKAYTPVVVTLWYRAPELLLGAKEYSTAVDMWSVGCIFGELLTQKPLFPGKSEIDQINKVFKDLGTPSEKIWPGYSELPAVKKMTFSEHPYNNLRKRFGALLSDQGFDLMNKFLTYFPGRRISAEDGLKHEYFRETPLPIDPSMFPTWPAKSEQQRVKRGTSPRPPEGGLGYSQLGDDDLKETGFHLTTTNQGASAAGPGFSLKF
Cyclin-dependent kinase 5 (Homo sapiens), sequence (Q00535 whole entry, looked up): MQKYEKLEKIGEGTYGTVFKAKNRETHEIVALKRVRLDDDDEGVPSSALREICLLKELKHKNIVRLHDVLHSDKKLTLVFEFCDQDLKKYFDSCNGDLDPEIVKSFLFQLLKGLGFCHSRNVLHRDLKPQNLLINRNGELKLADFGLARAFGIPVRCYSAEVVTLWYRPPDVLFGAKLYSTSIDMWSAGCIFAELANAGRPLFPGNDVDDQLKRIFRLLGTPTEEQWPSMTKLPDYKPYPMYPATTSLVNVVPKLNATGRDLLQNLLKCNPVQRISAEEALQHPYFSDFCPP

## Cn1cncc1[C@@](O)(COc1ccc(C#N)cc1-c1ccc(OC(F)(F)F)cc1)c1ccc(C#N)cc1 [A-108]
[1]
  residual activity: 86%
[2]
  residual activity: 92%
[3]
  residual activity: 96%
[4]
  residual activity: 99%
[5]
  residual activity: 100%
[6]
  residual activity: 100%
[7]
  residual activity: 75%
[8]
  residual activity: 100%
[9]
  residual activity: 100%
[10]
  residual activity: 95%
[11]
  inhibition: 1.27%
[12]
  inhibition: 2.79%

## Cn1cncc1[C@](O)(COc1ccc(C#N)cc1-c1ccc(OC(F)(F)F)cc1)c1ccc(C#N)cc1 [ABT-100]
[13]
  Kd: > 10 µM (not active)
[14]
  Kd: > 10 µM (not active)
[15]
  inhibition: < 10%
[16]
  inhibition: < 10%
[17]
  inhibition: 12%
[18]
  inhibition: < 10%
[19]; Compound concentration 1.0 uM
  inhibition: 21%
[19]; Compound concentration 3.0 uM
  inhibition: 41%
[19]; Compound concentration 10.0 uM
  inhibition: 75%
[20]
  inhibition: < 10%
[21]
  inhibition: < 10%
[22]
  inhibition: < 10%
[23]; Compound concentration 3.0 uM
  inhibition: 32%
[23]; Compound concentration 10.0 uM
  inhibition: 81%
[24]
  inhibition: < 10%
[25]
  inhibition: 14%
[26]
  inhibition: < 10%
[27]
  inhibition: 18%
[1]
  residual activity: 73%
[2]
  residual activity: 100%
[3]
  residual activity: 92%
[4]
  residual activity: 81%
[5]
  residual activity: 62%
[6]
  residual activity: 100%
[7]
  residual activity: 96%
[8]
  residual activity: 94%
[9]
  residual activity: 76%
[10]
  residual activity: 91%
[11]
  inhibition: -7.18%
[28]
  inhibition: 6.85%
[29]
  inhibition: -1.19%
[12]
  inhibition: 23.3%
[30]; Compound concentration 0.3 uM
  inhibition: 14%
[30]; Compound concentration 1.0 uM
  inhibition: 75%
[30]; Compound concentration 3.0 uM
  inhibition: 97%
[30]; Compound concentration 10.0 uM
  inhibition: 100%
